ChEMBL document CHEMBL1949505, “Total synthesis and structure-activity relationships of new echinocandin-like antifungal cyclolipohexapeptides” (2012)
Bridge positions count the residues as written; N and C are the ends. Square brackets hold non-standard residues; d marks the D form. Peptide text beside a SMILES is read from it. * marks the point of attachment. 2Naphthoyl(6-heptyloxy) = CCCCCCCOc1ccc2cc(C(=O)*)ccc2c1; 2Naphthoyl(6-octyloxy) = CCCCCCCCOc1ccc2cc(C(=O)*)ccc2c1; X2 = CCCCCCCOc1ccc(-c2ccc(-c3ccc(C(=O)*)cc3)cc2)cc1; X1 = CCCOc1ccc(-c2ccc(-c3ccc(C(=O)*)cc3)cc2)cc1; Pro(4S-NH2) = N[C@@H]1CN[C@H](C(=O)O)C1; hTyr = N[C@@H](CCc1ccc(O)cc1)C(=O)O; Orn = NCCC[C@H](N)C(=O)O

How the values were obtained:
Format in all cases: functional
Candida tropicalis = experiment: Antifungal activity against Candida tropicalis after 24 hrs by serial dilution method
Cryptococcus neoformans = experiment: Antifungal activity against Cryptococcus neoformans after 72 hrs by serial dilution method
Trichophyton rubrum = experiment: Antifungal activity against Trichophyton rubrum after 7 days by serial dilution method; conditions: 168 h
Pichia kudriavzevii = experiment: Antifungal activity against Candida krusei after 24 hrs by serial dilution method
Candida albicans = experiment: Antifungal activity against Candida albicans after 24 hrs by serial dilution method
Candida parapsilosis = experiment: Antifungal activity against Candida parapsilosis after 24 hrs by serial dilution method; conditions: Lodderomyces parapsilosis
Aspergillus fumigatus = experiment: Antifungal activity against Aspergillus fumigatus after 7 days by serial dilution method; conditions: 168 h

Structure (SMILES)	MIC80 (Candida tropicalis) [µg/mL]	MIC80 (Cryptococcus neoformans) [µg/mL]	MIC80 (Trichophyton rubrum) [µg/mL]	MIC80 (Pichia kudriavzevii) [µg/mL]	MIC80 (Candida albicans) [µg/mL]	MIC80 (Candida parapsilosis) [µg/mL]	MIC80 (Aspergillus fumigatus) [µg/mL]
CCCCCOc1ccc2cc(C(=O)N[C@H]3CCCNC(=O)[C@@H]4C[C@H](N)CN4C(=O)[C@H]([C@H](C)O)NC(=O)[C@H](CCc4ccc(O)cc4)NC(=O)[C@@H]4C[C@H](N)CN4C(=O)[C@H]([C@@H](C)O)NC3=O)ccc2c1.Cc1ccc(S(=O)(=O)O)cc1	> 64	> 64	> 64	8	2	32	> 64
CCCCCCOc1ccc2cc(C(=O)N[C@H]3CCCNC(=O)[C@@H]4C[C@H](N)CN4C(=O)[C@H]([C@H](C)O)NC(=O)[C@H](CCc4ccc(O)cc4)NC(=O)[C@@H]4C[C@H](N)CN4C(=O)[C@H]([C@@H](C)O)NC3=O)ccc2c1.Cc1ccc(S(=O)(=O)O)cc1	64	> 64	> 64	2	2	32	> 64
CCCCCCCOc1ccc2cc(C(=O)N[C@H]3CCCNC(=O)[C@@H]4C[C@H](N)CN4C(=O)[C@H]([C@H](C)O)NC(=O)[C@H](CCc4ccc(O)cc4)NC(=O)[C@@H]4C[C@H](N)CN4C(=O)[C@H]([C@@H](C)O)NC3=O)ccc2c1.Cc1ccc(S(=O)(=O)O)cc1	64	> 64	> 64	8	2	32	> 64
CCCOc1ccc(-c2ccc(-c3ccc(C(=O)N[C@H]4CCCNC(=O)[C@@H]5C[C@H](N)CN5C(=O)[C@H](CCCCN)NC(=O)[C@H](CCc5ccc(O)cc5)NC(=O)[C@@H]5CCCN5C(=O)[C@H]([C@@H](C)O)NC4=O)cc3)cc2)cc1.Cc1ccc(S(=O)(=O)O)cc1 (X1-[Orn]TP[hTyr]K[Pro(4S-NH2)]; lactam 1-C)	16	16	64	1	0.25	2	1
CCCOc1ccc(-c2ccc(-c3ccc(C(=O)N[C@H]4CCCNC(=O)[C@@H]5C[C@H](N)CN5C(=O)[C@H](CCCCN)NC(=O)[C@H](CCc5ccc(O)cc5)NC(=O)[C@@H]5CCCN5C(=O)[C@H](C(C)C)NC4=O)cc3)cc2)cc1.Cc1ccc(S(=O)(=O)O)cc1 (X1-[Orn]VP[hTyr]K[Pro(4S-NH2)]; lactam 1-C)	16	32	16	2	0.5	4	0.25
CCCOc1ccc(-c2ccc(-c3ccc(C(=O)N[C@H]4CCCNC(=O)[C@@H]5C[C@H](N)CN5C(=O)[C@H](CCCN)NC(=O)[C@H](CCc5ccc(O)cc5)NC(=O)[C@@H]5CCCN5C(=O)[C@H](C(C)C)NC4=O)cc3)cc2)cc1.Cc1ccc(S(=O)(=O)O)cc1 (X1-[Orn]VP[hTyr][Orn][Pro(4S-NH2)]; lactam 1-C)	8	32	16	2	0.5	4	0.5
CCCCCCCOc1ccc(-c2ccc(-c3ccc(C(=O)N[C@H]4CCCNC(=O)[C@@H]5C[C@H](N)CN5C(=O)[C@H](CCCN)NC(=O)[C@H](CCc5ccc(O)cc5)NC(=O)[C@@H]5CCCN5C(=O)[C@H]([C@@H](C)O)NC4=O)cc3)cc2)cc1.Cc1ccc(S(=O)(=O)O)cc1 (X2-[Orn]TP[hTyr][Orn][Pro(4S-NH2)]; lactam 1-C)	8	16	16	1	0.25	2	0.5
CCCCCCCOc1ccc(-c2ccc(-c3ccc(C(=O)N[C@H]4CCCNC(=O)[C@@H]5C[C@H](N)CN5C(=O)[C@H](CCCCN)NC(=O)[C@H](CCc5ccc(O)cc5)NC(=O)[C@@H]5CCCN5C(=O)[C@H](C(C)C)NC4=O)cc3)cc2)cc1.Cc1ccc(S(=O)(=O)O)cc1 (X2-[Orn]VP[hTyr]K[Pro(4S-NH2)]; lactam 1-C)	16	32	16	2	1	4	1
CCCCCCCOc1ccc(-c2ccc(-c3ccc(C(=O)N[C@H]4CCCNC(=O)[C@@H]5C[C@H](N)CN5C(=O)[C@H](CCCN)NC(=O)[C@H](CCc5ccc(O)cc5)NC(=O)[C@@H]5CCCN5C(=O)[C@H](C(C)C)NC4=O)cc3)cc2)cc1.Cc1ccc(S(=O)(=O)O)cc1 (X2-[Orn]VP[hTyr][Orn][Pro(4S-NH2)]; lactam 1-C)	16	64	32	2	1	8	1

Continued, values first:

MIC80 (Candida tropicalis) [µg/mL]	MIC80 (Cryptococcus neoformans) [µg/mL]	MIC80 (Trichophyton rubrum) [µg/mL]	MIC80 (Pichia kudriavzevii) [µg/mL]	MIC80 (Candida albicans) [µg/mL]	MIC80 (Candida parapsilosis) [µg/mL]	MIC80 (Aspergillus fumigatus) [µg/mL]	Structure (SMILES)
32	> 64	> 64	8	2	32	> 64	CCCCCCCCOc1ccc2cc(C(=O)N[C@H]3CCCNC(=O)[C@@H]4C[C@H](N)CN4C(=O)[C@H]([C@H](C)O)NC(=O)[C@H](CCc4ccc(O)cc4)NC(=O)[C@@H]4C[C@H](N)CN4C(=O)[C@H]([C@@H](C)O)NC3=O)ccc2c1.Cc1ccc(S(=O)(=O)O)cc1
32	> 64	64	8	> 64	32	> 64	CCCCCCCOc1ccc2cc(C(=O)N[C@H]3CCCNC(=O)[C@@H]4C[C@H](N)CN4C(=O)[C@H]([C@H](C)O)NC(=O)[C@H](CCc4ccc(O)cc4)NC(=O)[C@@H]4C[C@H](N)CN4C(=O)[C@H](CO)NC3=O)ccc2c1.Cc1ccc(S(=O)(=O)O)cc1
8	16	16	1	0.25	2	1	CCCCCCCOc1ccc(-c2ccc(-c3ccc(C(=O)N[C@H]4CCCNC(=O)[C@@H]5C[C@H](N)CN5C(=O)[C@H](CCCCN)NC(=O)[C@H](CCc5ccc(O)cc5)NC(=O)[C@@H]5CCCN5C(=O)[C@H]([C@@H](C)O)NC4=O)cc3)cc2)cc1.Cc1ccc(S(=O)(=O)O)cc1 (X2-[Orn]TP[hTyr]K[Pro(4S-NH2)]; lactam 1-C)
32	32	32	1	0.25	4	1	CCCCCCCOc1ccc2cc(C(=O)N[C@H]3CCCNC(=O)[C@@H]4C[C@H](N)CN4C(=O)[C@H](CCCN)NC(=O)[C@H](CCc4ccc(O)cc4)NC(=O)[C@@H]4CCCN4C(=O)[C@H]([C@@H](C)O)NC3=O)ccc2c1.Cc1ccc(S(=O)(=O)O)cc1 ({2Naphthoyl(6-heptyloxy)}-[Orn]TP[hTyr][Orn][Pro(4S-NH2)]; lactam 1-C)
32	32	32	2	0.5	4	1	CCCCCCCOc1ccc2cc(C(=O)N[C@H]3CCCNC(=O)[C@@H]4C[C@H](N)CN4C(=O)[C@H](CCCCN)NC(=O)[C@H](CCc4ccc(O)cc4)NC(=O)[C@@H]4CCCN4C(=O)[C@H](C(C)C)NC3=O)ccc2c1.Cc1ccc(S(=O)(=O)O)cc1 ({2Naphthoyl(6-heptyloxy)}-[Orn]VP[hTyr]K[Pro(4S-NH2)]; lactam 1-C)
32	32	32	2	1	4	0.5	CCCCCCCOc1ccc2cc(C(=O)N[C@H]3CCCNC(=O)[C@@H]4C[C@H](N)CN4C(=O)[C@H](CCCN)NC(=O)[C@H](CCc4ccc(O)cc4)NC(=O)[C@@H]4CCCN4C(=O)[C@H](C(C)C)NC3=O)ccc2c1.Cc1ccc(S(=O)(=O)O)cc1 ({2Naphthoyl(6-heptyloxy)}-[Orn]VP[hTyr][Orn][Pro(4S-NH2)]; lactam 1-C)
32	32	32	1	0.5	4	1	CCCCCCCCOc1ccc2cc(C(=O)N[C@H]3CCCNC(=O)[C@@H]4C[C@H](N)CN4C(=O)[C@H](CCCCN)NC(=O)[C@H](CCc4ccc(O)cc4)NC(=O)[C@@H]4CCCN4C(=O)[C@H]([C@@H](C)O)NC3=O)ccc2c1.Cc1ccc(S(=O)(=O)O)cc1 ({2Naphthoyl(6-octyloxy)}-[Orn]TP[hTyr]K[Pro(4S-NH2)]; lactam 1-C)
4	32	32	1	0.5	4	1	CCCCCCCCOc1ccc2cc(C(=O)N[C@H]3CCCNC(=O)[C@@H]4C[C@H](N)CN4C(=O)[C@H](CCCN)NC(=O)[C@H](CCc4ccc(O)cc4)NC(=O)[C@@H]4CCCN4C(=O)[C@H]([C@@H](C)O)NC3=O)ccc2c1.Cc1ccc(S(=O)(=O)O)cc1 ({2Naphthoyl(6-octyloxy)}-[Orn]TP[hTyr][Orn][Pro(4S-NH2)]; lactam 1-C)
32	32	32	2	1	4	1	CCCCCCCCOc1ccc2cc(C(=O)N[C@H]3CCCNC(=O)[C@@H]4C[C@H](N)CN4C(=O)[C@H](CCCCN)NC(=O)[C@H](CCc4ccc(O)cc4)NC(=O)[C@@H]4CCCN4C(=O)[C@H](C(C)C)NC3=O)ccc2c1.Cc1ccc(S(=O)(=O)O)cc1 ({2Naphthoyl(6-octyloxy)}-[Orn]VP[hTyr]K[Pro(4S-NH2)]; lactam 1-C)
16	16	16	2	0.5	2	1	CCCCCCCCOc1ccc2cc(C(=O)N[C@H]3CCCNC(=O)[C@@H]4C[C@H](N)CN4C(=O)[C@H](CCCN)NC(=O)[C@H](CCc4ccc(O)cc4)NC(=O)[C@@H]4CCCN4C(=O)[C@H](C(C)C)NC3=O)ccc2c1.Cc1ccc(S(=O)(=O)O)cc1 ({2Naphthoyl(6-octyloxy)}-[Orn]VP[hTyr][Orn][Pro(4S-NH2)]; lactam 1-C)
